Holding throughout (type): in vivo
Test [1] relates to HORVS = Hordeum vulgare (barley), variety Boroness. Kind of test: Barley seed treatment with safener, then pre-emergence herbicide H2 (metolachlor); visual crop injury. To be noted: for Safener effect in % reduction in crop injury: HORVS. As for the experimental part: (§1) The number of crop seeds that would be needed for each safener rate was calculated. Based on the weight of 100 seeds, sufficient seeds were weighed into screw top glass bottles approximately twice the volume of the seeds.
(§2) The prospective safeners were formulated as wettable powders or water dispersible granules. These formulations were weighed out so that the required rates (g a.i./kg seed) would be obtained. The samples were added to the seeds in the bottles and then sufficient water added to produce a slurry. The bottles were capped and then placed in an overhead shaker (set at medium speed for up to 1 hour) so that the seeds were evenly coated with the slurry. The bottles were uncapped and the seeds used in the pre- or post-emergence tests as described in sections 1.2 and 1.3.
(§3) As an alternative seed treatment method, active ingredient of the prospective safeners was weighed and dissolved in a solvent (e.g. acetone) and added to the seeds in the bottles. The solvent type and volume was selected based on prior experience so that it would have no negative impact on seed germination or subsequent plant growth. After shaking for up to 1 hour (overhead shaker) the seeds were spread out on paper in a fume cabinet to allow the remaining solvent to evaporate. The seeds were then used in the pre- or post-emergence tests as described in sections 1.2 and 1.3.
(§4) In tests in which larger quantities of seeds required treatment, the prospective safeners, either as formulated samples in water or as active ingredient dissolved in solvent were applied to seeds using a mini-rotostat apparatus. The seeds were allowed to dry for a short time before being used in the pre- or post-emergence tests as described in sections 1.2 and 1.3.
(§5) The safener treated seeds and untreated comparison seeds were sown into 7 to 13 cm round pots in a sandy loam soil and covered with approximately 0.5 to 1 cm of a 1 to 1 mix of sandy loam soil and sand. Herbicidal substances, as liquid (e.g. Emulsifiable concentrates) or dry (e.g. wettable powder) formulations, were diluted to the required concentrations in deionised water and applied to the soil surface using a track sprayer calibrated to deliver 300 to 800 litres of spray solution per hectare.
(§6) The pots were placed under good growing conditions in a glasshouse and a visual assessment of herbicidal effects made after 3 to 4 weeks after herbicide application. Assessment was on a percentage basis in comparison with untreated control plants (0%=no injury, 100%=complete kill).
Wheat or barley seeds were treated according to example 1.1. […] After 3 to 4 weeks the results were visually scored in comparison with control plants (without seed treatment and herbicide treatment).

In test [2] the test system is ZEAMA = Zea mays (maize), variety Lorenzo. Nature of the test: Corn seed treatment with safener, then pre-emergence herbicide H1 (isoxaflutole); visual crop injury. The conditions noted are these: safener seed treatment 0.1 g a.i./kg seed + Herbicide H1 pre-emergent 100 g a.i./ha. As for the experimental part:
as §1, §2
(§7) As an alternative seed treatment method, active ingredient of the prospective safeners was weighed and dissolved in a solvent (e.g. acetone) and added to the seeds in the bottles. […]
(§8) In tests in which larger quantities of seeds required treatment, the prospective safeners, either as formulated samples in water or as active ingredient dissolved in solvent were applied to seeds using a mini-rotostat apparatus. […]
(§9) Corn seeds were treated according to example 1.1. […] After 3 to 4 weeks the results were visually scored in comparison with control plants (without seed treatment and herbicide treatment).

Test [3] relates to corn (variety Dea). Nature of the test: Corn seed treatment with safener, then post-emergence herbicide H3 (diflufenzopyr + dicamba sodium salts); visual crop injury. The protocol: as §1, §2, §7, §8, §9
Test [4] deals with TRZAS, Triticum aestivum (wheat), variety Ralle. Kind of test: Wheat seed treatment with safener, then pre-emergence herbicide H2 (metolachlor); visual crop injury. The conditions noted are these: for Safener effect in % reduction in crop injury: TRZAS. The protocol: as §1, §2, §3, §4, §5, §6
Wheat or barley seeds were treated according to example 1.1. After sowing the herbicide was applied pre-emergent on the soil surface as described in example 1.2. After 3 to 4 weeks the results were visually scored in comparison with control plants (without seed treatment and herbicide treatment).

The mark [5] stands for this setting: safener seed treatment 0.5 g a.i./kg seed + Herbicide H2 pre-emergent 700 g a.i./ha.
[6] abbreviates: safener seed treatment 1 g a.i./kg seed + Herbicide H2 pre-emergent 700 g a.i./ha.
Setting [7] is: safener seed treatment 2 g a.i./kg seed + Herbicide H2 pre-emergent 700 g a.i./ha.

Regarding `CCOC(=O)C1=NOC(c2ccccc2)(c2ccccc2)C1` [(lb)], the “% injury to HORVS” value in test [1] (setting [5]) and in test [1] (setting [6]) was 0% each time. The “Safener effect in % reduction in crop injury” value came out at 100% in test [1] (setting [5]); 100% in test [1] (setting [6]); 71% in test [2] (ZEAMA); 57% in test [3] (safener seed treatment 0.01 g a.i./kg seed + Herbicide H3 500 g a.i./ha, corn variety Dea); 86% in test [4] (setting [5]); 73% in test [4] (setting [6]). Also, in test [4] (setting [7]), the “Safener effect in % reduction in crop injury” value is recorded as 79%. For the same compound, the “% injury to ZEAMA” value in test [2] (after 3 to 4 weeks) stood at 10%. Moreover, the “% injury to corn (variety Dea)” value in test [3] (safener seed treatment 0.01 g a.i./kg seed + Herbicide H3 500 g a.i./ha (head: pre-emergent; text: post-emergent at 2 to 3-leaf stage)) was determined as 10%. Further, the figures for the “% injury to TRZAS” value in test [4] (setting [5]), in test [4] (setting [6]) and in test [4] (setting [7]) were 10%, 20% and 15%, respectively.
